The subject of one data set is MV4-11 cells. The experiment in a line: MV4-11 Cell Cytotoxicity Assay (CellTiter-Blue, 72 h). Format: cell-based, human. The procedure, abridged: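 Cells seeded 24 h before treatment, then exposed 72 h at 37° C, 5% CO2 to inhibitors in triplicate, top concentration 50 μM with 1:2 serial dilutions (0.5% DMSO vehicle). Viability read by CellTiter-Blue fluorescence at 560/590 nm after 1 h.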
For orientation: The colour change of resazurin is a common sign of viable cells or microbes.

A further data set concerns glutathione (GSH). Description: Reactivity Profiling with Glutathione (GSH), half-life by HPLC. Particulars: 5 mM glutathione (GSH) in IMDM with 10% FBS.
Setting [1] is: Homo sapiens, MV4-11, MV-4-11 cells.
The mark [2] stands for this setting: Homo sapiens, MV4-11 cells, 72 h, CellTiter-Blue, read-out: IC50- MV-4-11.

We go through 22 molecules from patent publication US20230159445A1, “STAT INHIBITORY COMPOUNDS AND COMPOSITIONS” (JANPIX LIMITED, priority 2020, published 2023).

Where two headings read alike, the source gives them in different places.

The IC50 is the concentration that gives 50% inhibition. One may read the half-life as the time needed for the level to fall by half in the phase considered. High values mean slow loss, low ones fast loss. For `CC(C)COc1cc(CN(C(=O)CN(Cc2ccc(Cl)cc2)S(=O)(=O)c2c(F)c(F)c(F)c(F)c2F)c2ccc(C(=O)O)c(O)c2)cc(OCC2CC2)c1` [Compound 1010, 4-(2-(N-(4-chlorobenzyl)-(2,3,4,5,6-pentafluorophenyl)sulfonamido)-N-(3-(cyclopropylmethoxy)-5-isobutoxybenzyl)acetamido)-2-hydroxybenzoic acid], the IC50 in the data set on MV4-11 cells (setting [1]) lay within 3.16 to 100 µM. The same molecule returned a half-life at 25 μM with glutathione (GSH) of 2.37 to 4.12 h.

In the data set with MV4-11 cells (setting [1]), `CC(C)(C)c1cc(CN(C(=O)CN(Cc2ccc(Cl)cc2)S(=O)(=O)c2c(F)c(F)c(F)c(F)c2F)c2ccc(C(=O)O)cc2O)cc(C2CC2)c1` [Compound 1015, 4-(N-(3-(tert-butyl)-5-cyclopropylbenzyl)-2-(N-(4-chlorobenzyl)-(2,3,4,5,6-pentafluorophenyl)sulfon-amido)acetamido)-3-hydroxybenzoic acid] registered an IC50 of 3.16 to 100 µM. Moreover, the half-life at 25 μM with glutathione (GSH) was in the range of 4.12 to 9.23 h.

In turn, `COc1cc(N(Cc2cc(C3CC3)cc(C(C)(C)C)c2)C(=O)CN(Cc2ccc(Cl)cc2)S(=O)(=O)c2c(F)c(F)c(F)c(F)c2F)ccc1C(=O)O` [Compound 1017, 4-(N-(3-(tert-butyl)-5-cyclopropylbenzyl)-2-(N-(4-chlorobenzyl)-(2,3,4,5,6-pentafluorophenyl)sulfon-amido)acetamido)-2-methoxybenzoic acid] showed an IC50 in the data set on MV4-11 cells (setting [1]) of 0.316 to 1 µM. In the data set with glutathione (GSH), this molecule showed a half-life at 25 μM of 4.12 to 9.23 h.

In the case of `CC(C)c1cc(CN(C(=O)CN(Cc2ccc(Cl)cc2)S(=O)(=O)c2c(F)c(F)c(F)c(F)c2F)c2ccc(C(=O)O)c(O)c2)cc(C2CC2)c1` [Compound 1021, 4-(2-(N-(4-chlorobenzyl)-(2,3,4,5,6-pentafluorophenyl)sulfon-amido)-N-(3-cyclopropyl-5-isopropylbenzyl)acetamido)-2-hydroxybenzoic acid], in the data set on MV4-11 cells (setting [1]), the IC50 is 3.16 to 100 µM. Further, the half-life at 25 μM in the data set on glutathione (GSH) lay in the range of 0.00167 to 2.37 h.

With `CC(C)(C)c1cc(CN(C(=O)CN(Cc2ccc(Cl)cc2)S(=O)(=O)c2c(F)c(F)c(F)c(F)c2F)c2ccc(C(N)=O)cc2)cc(C2CC2)c1` [Compound 1031, 4-(N-(3-(tert-butyl)-5-cyclopropylbenzyl)-2-(N-(4-chlorobenzyl)-(2,3,4,5,6-pentafluorophenyl)sulfon-amido)acetamido) benzamide], in the data set on MV4-11 cells (setting [1]), the 50% inhibitory concentration (IC50) was in the range of 1 to 3.16 µM. Moreover, in the data set with glutathione (GSH), the half-life at 25 μM lay within 9.23 to 1670 h.

`CC(C)(C)c1cc(CN(C(=O)CN(Cc2ccc(Cl)cc2)S(=O)(=O)c2c(F)c(F)c(F)c(F)c2F)c2ccc(C(=O)O)c(F)c2)cc(C2CC2)c1` [Compound 1033, 4-(N-(3-(tert-butyl)-5-cyclopropylbenzyl)-2-(N-(4-chlorobenzyl)-(2,3,4,5,6-pentafluorophenyl)sulfon-amido)acetamido)-2-fluorobenzoic acid] yielded a concentration for half-maximal inhibition (IC50) in the data set with MV4-11 cells (setting [1]) of 1 to 3.16 µM. The half-life at 25 μM in the data set on glutathione (GSH) lay in the range of 0.00167 to 2.37 h.

For the molecule `COc1ccccc1CN(CC(=O)N(Cc1cc(C2CC2)cc(C(C)(C)C)c1)c1ccc(C(=O)O)c(O)c1)S(=O)(=O)c1c(F)c(F)c(F)c(F)c1F` [Compound 1037, 4-(N-(3-(tert-butyl)-5-cyclopropylbenzyl)-2-(N-(2-methoxybenzyl)-(2,3,4,5,6-pentafluoro-phenyl)sulfonamido)acetamido)-2-hydroxybenzoic acid], the IC50 in the data set with MV4-11 cells (setting [1]) fell in the range of 1 to 3.16 µM. This molecule also had a half-life at 25 μM in the data set with glutathione (GSH) of 2.37 to 4.12 h.

In turn, `C[C@H](CC(=O)N(Cc1cc(C2CC2)cc(C(C)(C)C)c1)c1ccc(C(=O)O)c(O)c1)N(Cc1ccc(Cl)cc1)S(=O)(=O)c1c(F)c(F)c(F)c(F)c1F` [Compound 1039, (R)-4-(N-(3-(tert-butyl)-5-cyclopropylbenzyl)-3-(N-(4-chlorobenzyl)-(2,3,4,5,6-pentafluorophenyl)sulfon-amido)butanamido)-2-hydroxybenzoic acid] gave an IC50 in the data set on MV4-11 cells (setting [1]) of 1 to 3.16 µM. The molecule also yielded a half-life at 25 μM in the data set on glutathione (GSH) of 2.37 to 4.12 h.

Molecule `O=C(O)c1ccc(N(Cc2cccc(N3CCCC3)c2)C(=O)CN(Cc2cnccc2C(F)(F)F)S(=O)(=O)c2c(F)c(F)c(F)c(F)c2F)c(OC2CC2)c1` [Compound 1159, 3-cyclopropoxy-4-(2-(N-((4-(trifluoromethyl)pyridin-3-yl)methyl)-(2,3,4,5,6-pentafluoro-phenyl)sulfonamido)-N-(3-(pyrrolidin-1-yl)benzyl)acetamido) benzoic acid] registered a half-life at 25 μM with glutathione (GSH) of 0.00167 to 2.37 h.

In turn, `O=C(O)c1ccc(N(Cc2cccc(N3CCCC3)c2)C(=O)CN(Cc2ncccc2C(F)(F)F)S(=O)(=O)c2c(F)c(F)c(F)c(F)c2F)c(OC2CC2)c1` [Compound 1160, 3-cyclopropoxy-4-(2-(N-((3-(trifluoromethyl)pyridin-2-yl)methyl)-(2,3,4,5,6-pentafluoro-phenyl)sulfonamido)-N-(3-(pyrrolidin-1-yl)benzyl)acetamido) benzoic acid] had a half-life at 25 μM in the data set on glutathione (GSH) of 0.00167 to 2.37 h.

`COc1cc(C(=O)OC(C)C)ccc1N(Cc1cc(C2CC2)cc(C(C)(C)C)c1)C(=O)CN(Cc1cnccc1C(F)(F)F)S(=O)(=O)c1c(F)c(F)c(F)c(F)c1F` [Compound 1172, isopropyl 4-(N-(3-(tert-butyl)-5-cyclopropylbenzyl)-2-(N-((4-(trifluoromethyl)pyridin-3-yl)methyl)-(2,3,4,5,6-pentafluoro-phenyl)sulfonamido)acetamido)-3-methoxybenzoate] registered a half-life at 25 μM in the data set on glutathione (GSH) of 9.23 to 1670 h.

`COc1cc(C(=O)O)ccc1N(Cc1cc(C2CC2)cc(C(C)(C)C)c1)C(=O)CN(Cc1ncc(Cl)cc1F)S(=O)(=O)c1c(F)c(F)c(F)c(F)c1F` [Compound 1177, 4-(N-(3-(tert-butyl)-5-cyclopropylbenzyl)-2-(N-((5-chloro-3-fluoropyridin-2-yl)methyl)-(2,3,4,5,6-pentafluorophenyl)sulfon-amido)acetamido)-3-methoxybenzoic acid]: the half-life at 25 μM in the data set on glutathione (GSH) lay in the range of 0.00167 to 2.37 h.

As for `COc1cc(O)ccc1N(Cc1cc(C2CC2)cc(C(C)(C)C)c1)C(=O)CN(Cc1cnccc1C(F)(F)F)S(=O)(=O)c1c(F)c(F)c(F)c(F)c1F` [Compound 1267, N-(3-(tert-butyl)-5-cyclopropylbenzyl)-N-(4-hydroxy-2-methoxyphenyl)-2-(N-((4-(trifluoromethyl)pyridin-3-yl)methyl)-(2,3,4,5,6-pentafluoro-phenyl)sulfonamido) acetamide], the half-life at 25 μM in the data set with glutathione (GSH) is 9.23 to 1670 h.

In the case of `CC(C)(C)c1cc(CN(C(=O)CN(C23CC(C2)C3)S(=O)(=O)c2c(F)c(F)c(F)c(F)c2F)c2ccc(C(=O)O)c(O)c2)cc(C2CC2)c1` [Compound 2008, 4-(2-(N-(bicyclo[1.1.1]pentan-1-yl)-(2,3,4,5,6-pentafluorophenyl)sulfon-amido)-N-(3-(tert-butyl)-5-cyclopropylbenzyl)acetami-do)-2-hydroxybenzoic acid], in the data set on MV4-11 cells (setting [2]), the 50% inhibitory concentration (IC50) fell in the range of 3.16 to 100 µM.

With `O=C(O)c1ccc(N(Cc2cc(OCC(F)(F)F)cc(OCC(F)(F)F)c2)C(=O)CN(Cc2ccc(Cl)cc2)S(=O)(=O)c2c(F)c(F)c(F)c(F)c2F)cc1O` [Compound 2009, 4-(N-(3,5-bis(2,2,2-trifluoroethoxy)benzyl)-2-(N-(4-chlorobenzyl)-(2,3,4,5,6-pentafluorophenyl)sulfon-amido)acetamido)-2-hydroxybenzoic acid], the IC50 in the data set on MV4-11 cells (setting [2]) was in the range of 3.16 to 100 µM.

For the molecule `O=C(O)c1ccc(N(Cc2cc(O)cc(O)c2)C(=O)CN(Cc2ccc(Cl)cc2)S(=O)(=O)c2c(F)c(F)c(F)c(F)c2F)cc1O` [Compound 2010, 4-(2-(N-(4-chlorobenzyl)-(2,3,4,5,6-pentafluorophenyl)sulfon-amido)-N-(3,5-dihydroxybenzyl)acetamido)-2-hydroxybenzoic acid], the half-maximal inhibitory concentration (IC50) with MV4-11 cells (setting [2]) was 3.16 to 100 µM.

Consider `CC(C)(C)c1cccc(CN(C(=O)CN(C23CC(C2)C3)S(=O)(=O)c2c(F)c(F)c(F)c(F)c2F)c2ccc(C(=O)O)c(O)c2)c1` [Compound 2011, 4-(2-(N-(bicyclo[1.1.1]pentan-1-yl)-(2,3,4,5,6-pentafluorophenyl)sulfon-amido)-N-(3-(tert-butyl)benzyl)acetamido)-2-hydroxybenzoic acid], for which the 50% inhibitory concentration (IC50) in the data set with MV4-11 cells (setting [2]) was in the range of 1 to 3.16 µM.

On to `O=C(O)c1ccc(N(Cc2cc(Cl)cc(Cl)c2)C(=O)CN(Cc2ccc(Cl)cc2)S(=O)(=O)c2c(F)c(F)c(F)c(F)c2F)cc1O` [Compound 2012, 4-(2-(N-(4-chlorobenzyl)-(2,3,4,5,6-pentafluorophenyl)sulfon-amido)-N-(3,5-dichlorobenzyl)acetamido)-2-hydroxybenzoic acid], for which the half-maximal inhibitory concentration (IC50) in the data set on MV4-11 cells (setting [2]) was in the range of 3.16 to 100 µM.

`O=C(O)c1ccc(N(Cc2cc(Cl)cc(Br)c2)C(=O)CN(Cc2ccc(Cl)cc2)S(=O)(=O)c2c(F)c(F)c(F)c(F)c2F)cc1O` [Compound 2013, 4-(N-(3-bromo-5-chlorobenzyl)-2-(N-(4-chlorobenzyl)-(2,3,4,5,6-pentafluorophenyl)sulfon-amido)acetamido)-2-hydroxybenzoic acid]: in the data set with MV4-11 cells (MV4-11 cells, 72 h, CellTiter-Blue, read-out: IC50- MV-4-11), the half-maximal inhibitory concentration (IC50) is 3.16 to 100 µM.

`CC(C)(C)c1cc(N(C(=O)CN(Cc2ccc(Cl)cc2)S(=O)(=O)c2c(F)c(F)c(F)c(F)c2F)c2ccc(C(=O)O)c(O)c2)cc(C(C)(C)C)c1` [Compound 2014, 4-(2-(N-(4-chlorobenzyl)-(2,3,4,5,6-pentafluorophenyl)sulfon-amido)-N-(3,5-di-tert-butylphenyl)acetamido)-2-hydroxybenzoic acid]: in the data set on MV4-11 cells (setting [2]), the IC50 lay in the range of 1 to 3.16 µM.

On to `COc1cc(C(=O)O)ccc1N(C)C(=O)CN(Cc1ccccc1C(F)(F)F)S(=O)(=O)c1c(F)c(F)c(F)c(F)c1F` [Compound 2018, 3-methoxy-4-(N-methyl-2-(N-(2-(trifluoromethyl)benzyl)-(2,3,4,5,6-pentafluoro-phenyl)sulfonamido)acetami-do)benzoic acid], for which the half-inhibitory concentration (IC50) with MV4-11 cells (setting [2]) is 1 to 3.16 µM.

Regarding `CC1(C)OC(=O)c2ccc(N(Cc3cc(C4CC4)cc(C(C)(C)C)c3)C(=O)CN(Cc3ccc(Cl)cc3)S(=O)(=O)c3c(F)c(F)c(F)c(F)c3F)cc2O1` [Compound 2022, N-(3-(tert-butyl)-5-cyclopropylbenzyl)-2-(N-(4-chlorobenzyl)-(2,3,4,5,6-pentafluorophenyl)sulfon-amido)-N-(2,2-dimethyl-4-oxo-4H-benzo[d][1,3]dioxin-7-yl)acetamide], the half-inhibitory concentration (IC50) in the data set on MV4-11 cells (setting [2]) was 3.16 to 100 µM.
